Source: patent publication US4241087A, “Dysmenorrhea treatment” (William H. Rorer, Inc., priority 1979, dated 1980)

Columns and labels:
Type in all cases: cell-based
[1] = system: Oxytocin induced contractions in the isolated gravid rat uterus; assay: Oxytocin induced contractions, isolated gravid rat uterus (isometric, non-cumulative dose response); conditions: for inhibition at 40 µg/mL / inhibition at 80 µg/mL / inhibition at 160 µg/mL: Rattus norvegicus; for inhibition at 40 µg/mL: compound 40 μg/ml; for inhibition at 80 µg/mL: compound 80 μg/ml; for inhibition at 160 µg/mL: compound 160 μg/ml
Method: (§1) Female virgin Wistar rats at an average weight of 160 g to 220 g are used for the experiment. Prior to the experiment, the animals are housed five per group and maintained according to standard animal husbandry procedures. The animals are treated with DES (100 mg/kg/body weight) 24 hours prior to the experiment.
(§2) The stage of the estrus cycle is determined by vaginal smears on the morning of the experiment. Rats in estrus are killed by a blow on the head and the abdomen is opened. The two horns of the uterus are dissected out and transferred to a dish containing Bathing's solution (composition in g: NaCL, 8.046; KCl, 0.20; CaCl2.2H2 O, 0.132; MgCl2.6H2 O, 0.106; NaHCO3, 1.0; NaH2 PO4, 0.065; Dextrose, 1.0 distilled to 1 liter with distilled water). The two horns are separated and freed from mesentery in Bathing's solution. A thread is attached at each end of each horn and the uterine segment is mounted in a tissue bath (50 ml), maintained at 37° C. by a circulatory bath and aerated with 95% O2 5% CO2. One thread is attached to a fixed pin and the other to a transducer. Contractions are recorded isometrically on a Beckman dynograph in conjunction with a Grass force-displacement transducer (FTO3C) of which has been calibrated in g. tension, or isotonically in conjunction with a Harvard smooth muscle transducer (386). The tissue is subjected to a baseline tension of 0.5 g. The preparation is allowed to equilibrate for 30 minutes prior to the experiment.
(§3) Various spasmogens (such as: acetylcholine chloride, PGF2a, PGE2, oxytocin, BaCl2 or ergonivine maleate) may be used to induce contractions in the isolated uterine strip. See "In Vitro Methodology for Evaluation of Compound Effect on Isolated Guinea Pig Ileum" for description of obtaining dose response curve. Afer the control dose-response curve is obtained, the tissue is allowed to relax for five minutes before the addition of the spasmolytic drug (inhibitory drug). The test drug is in contact with the tissue for two minutes before the dose-response curve is repeated. The inhibitory effect of the test drug is determined as follows: [formula]
(§4) The % maximum response is calculated for each dose of the dose-response curve and the control and drug curves are plotted.
(§5) The dose-response behavior on the isolated gravid rat uterus of Acetylcholine chloride, Oxytocin and PGF2a was compared in the presence and absence of varying doses of 1-(2',6'-dimethylphenyl)-3-methylamidinourea hydrochloride using the non-cumulative dose response method.

[2] = system: Ach induced contractions in the isolated gravid rat uterus; assay: Ach induced contractions, isolated gravid rat uterus (isometric, non-cumulative dose response); conditions: for inhibition at 160 µg/mL / inhibition at 40 µg/mL / inhibition at 80 µg/mL: Rattus norvegicus; for inhibition at 40 µg/mL: compound 40 μg/ml; for inhibition at 80 µg/mL: compound 80 μg/ml
Method: as §1, §2, §3, §4, §5

[3] = system: PGF2α induced contractions in the isolated gravid rat uterus; assay: PGF2α induced contractions, isolated gravid rat uterus (isometric, non-cumulative dose response); conditions: for inhibition at 40 µg/mL / inhibition at 80 µg/mL / inhibition at 160 µg/mL: Rattus norvegicus; for inhibition at 40 µg/mL: compound 40 μg/ml; for inhibition at 80 µg/mL: compound 80 μg/ml; for inhibition at 160 µg/mL: compound 160 μg/ml
Method: as §1, §2, §3, §4, §5

[4] = increasing doses of compound, in vitro gravid rat uterus

Structure (SMILES): CNC(=N)NC(=O)Nc1c(C)cccc1C.Cl [1-(2',6'-dimethylphenyl)-3-methylamidinourea hydrochloride]
- inhibition at 40 µg/mL ([1]; Oxytocin 1 × 10^-4 U/ml): < 22.1%
- inhibition at 40 µg/mL ([1]; Oxytocin 1 × 10^-5 U/ml): 100%
- inhibition at 40 µg/mL ([1]; Oxytocin 3 × 10^-5 U/ml): 22.1%
- inhibition at 80 µg/mL ([1]; Oxytocin 1 × 10^-4 U/ml): 14.4%
- inhibition at 80 µg/mL ([1]; Oxytocin 1 × 10^-5 U/ml): 100%
- inhibition at 80 µg/mL ([1]; Oxytocin 3 × 10^-4 U/ml): < 14.4%
- inhibition at 80 µg/mL ([1]; Oxytocin 3 × 10^-5 U/ml): 48.7%
- inhibition at 160 µg/mL ([1]; Oxytocin 1 × 10^-3 U/ml): 47.6%
- inhibition at 160 µg/mL ([1]; Oxytocin 1 × 10^-4 U/ml): 100%
- inhibition at 160 µg/mL ([1]; Oxytocin 1 × 10^-5 U/ml): 100%
- inhibition at 160 µg/mL ([1]; Oxytocin 3 × 10^-3 U/ml): 32.5%
- inhibition at 160 µg/mL ([1]; Oxytocin 3 × 10^-4 U/ml): 63.2%
- inhibition at 160 µg/mL ([1]; Oxytocin 3 × 10^-5 U/ml): 100%
- inhibition of Oxytocin induced contractions (in words) [1, 4]: dose dependent
- inhibition at 160 µg/mL ([2]; ACH-2, compound 160 μg/ml, Ach 2,560 μg/ml): 67.4%
- inhibition at 40 µg/mL ([2]; Ach 20 μg/ml): 100%
- inhibition at 40 µg/mL ([2]; Ach 40 μg/ml): 83%
- inhibition at 40 µg/mL ([2]; Ach 80 μg/ml): 79.7%
- inhibition at 40 µg/mL ([2]; Ach 160 μg/ml): 46.8%
- inhibition at 40 µg/mL ([2]; Ach 320 μg/ml): 2.8%
- inhibition at 40 µg/mL ([2]; Ach 640 μg/ml): < 2.8%
- inhibition at 80 µg/mL ([2]; Ach 20 μg/ml): 100%
- inhibition at 80 µg/mL ([2]; Ach 40 μg/ml): 100%
- inhibition at 80 µg/mL ([2]; Ach 80 μg/ml): 100%
- inhibition at 80 µg/mL ([2]; Ach 160 μg/ml): 95.8%
- inhibition at 80 µg/mL ([2]; Ach 320 μg/ml): 26.8%
- inhibition at 80 µg/mL ([2]; Ach 640 μg/ml): < 26.8%
- inhibition at 160 µg/mL ([2]; compound 160 μg/ml, Ach 20 μg/ml): 100%
- inhibition at 160 µg/mL ([2]; compound 160 μg/ml, Ach 40 μg/ml): 100%
- inhibition at 160 µg/mL ([2]; compound 160 μg/ml, Ach 80 μg/ml): 100%
- inhibition at 160 µg/mL ([2]; compound 160 μg/ml, Ach 160 μg/ml): 100%
- inhibition at 160 µg/mL ([2]; compound 160 μg/ml, Ach 320 μg/ml): 93.3%
- inhibition at 160 µg/mL ([2]; compound 160 μg/ml, Ach 640 μg/ml): 93.6%
- inhibition at 160 µg/mL ([2]; compound 160 μg/ml, Ach 1,280 μg/ml): 84.6%
- inhibition at 160 µg/mL ([2]; compound 160 μg/ml, Ach 5,120 μg/ml): 61.2%
- inhibition at 160 µg/mL ([2]; compound 160 μg/ml, Ach 10,240 μg/ml): 62.7%
- inhibition of Acetylcholine chloride induced contractions (in words) [2, 4]: dose dependent
- inhibition at 40 µg/mL ([3]; PGF2α 1 × 10^-7 M): 39.5%
- inhibition at 40 µg/mL ([3]; PGF2α 1 × 10^-8 M): 99%
- inhibition at 40 µg/mL ([3]; PGF2α 3 × 10^-7 M): < 39.5%
- inhibition at 40 µg/mL ([3]; PGF2α 3 × 10^-8 M): 95.1%
- inhibition at 80 µg/mL ([3]; PGF2α 1 × 10^-6 M): < 48.9%
- inhibition at 80 µg/mL ([3]; PGF2α 1 × 10^-7 M): 64%
- inhibition at 80 µg/mL ([3]; PGF2α 1 × 10^-8 M): 98.2%
- inhibition at 80 µg/mL ([3]; PGF2α 3 × 10^-7 M): 48.9%
- inhibition at 80 µg/mL ([3]; PGF2α 3 × 10^-8 M): 91.3%
- inhibition at 160 µg/mL ([3]; PGF2α 1 × 10^-6 M): 96.1%
- inhibition at 160 µg/mL ([3]; PGF2α 1 × 10^-7 M): 98.5%
- inhibition at 160 µg/mL ([3]; PGF2α 1 × 10^-8 M): 100%
- inhibition at 160 µg/mL ([3]; PGF2α 3 × 10^-6 M): 86.8%
- inhibition at 160 µg/mL ([3]; PGF2α 3 × 10^-7 M): 96.1%
- inhibition at 160 µg/mL ([3]; PGF2α 3 × 10^-8 M): 100%
- inhibition of PGF2a induced contractions (in words) [3, 4]: dose dependent
